According to patent publication US8987262B2, “Use of a beta blocker for the manufacture of a medicament for the treatment of hemangiomas” (Universite de Bordeaux, priority 2007, dated 2015):
Like-named read-outs stand apart in the source and are kept apart here. Blank lines part the entries; values can stand above or below the compound they belong to.

How the values were obtained:
[1] = tested on: infantile capillary hemangiomas (IH); test: Treatment of infants with infantile hemangioma (case reports, Examples 1-3)
subglottic hemangioma = details: cited from earlier work
HIF-1alpha and VEGF = details: pressure-overloaded rat heart; cited from earlier work
IH = details: in vivo; cited from earlier work
cleaved caspase-3 and 8 = test: Immuno-histochemical analysis of IH biopsy with anti-cleaved caspase-3 and 8 antibodies; design: species or system human; details: Example 2, arm biopsy at 3 months of age
Description: Prednisolone treatment was progressively tapered down while the IH continued to improve. At 3 months of age a biopsy sample was obtained on the arm, showing a typical IH.
Reintroduction of propranolol treatment at 2 mg/kg/day was successful after only 24 hours.

infantile hemangiomas = details: cited from earlier work
head and neck IH = details: oral suspension up to 4 mg/kg/day, 24 weeks; cited from earlier work
[2] = Case 4, 3 mg/kg/day, stenosis at referral 90%
[3] = Case 1, 8 mg/kg/day, stenosis at referral 90%
[4] = Case 2, 8 mg/kg/day, stenosis at referral 70%
[5] = Case 3, 8 mg/kg/day, stenosis at referral 90%

Structure (SMILES): C[C@H]1C[C@H]2[C@@H]3CCC4=CC(=O)C=C[C@]4(C)[C@@]3(F)[C@@H](O)C[C@]2(C)[C@@]1(O)C(=O)CO [betamethasone]
cardiac sonography finding ([1]; Example 1, under systemic steroid): obstructive hypertrophic myocardiopathy

Structure (SMILES): C[C@]12C=CC(=O)C=C1CC[C@@H]1[C@@H]2[C@@H](O)C[C@@]2(C)[C@H]1CC[C@]2(O)C(=O)CO [prednisolone]
effect on hemangioma ([1]; Example 1, one-month treatment at 3 mg/kg/day): stabilized, but nasal necrosis progressed
effect on IH ([1]; Example 2, 3 mg/kg/day 2 weeks then 5 mg/kg/day 2 weeks): continued to enlarge
CS efficiency (subglottic hemangioma; Case 1, before beta-blocker treatment, (2 mg/kg/day)): CS-persistant
CS efficiency (subglottic hemangioma; Case 2, before beta-blocker treatment, (1 mg/kg/day)): CS-dependent
CS efficiency (subglottic hemangioma; Case 3, before beta-blocker treatment, (1 mg/kg/day)): CS-dependent
CS efficiency (subglottic hemangioma; Case 4, before beta-blocker treatment, (1.5 mg/kg/day)): CS-dependent

Structure (SMILES): COc1ccccc1OCCNCC(O)COc1cccc2[nH]c3ccccc3c12 (centres unmarked) [cardivedilol]
effect on HIF-1alpha and VEGF protein and mRNA (HIF-1alpha and VEGF): reverses both protein and mRNA of HIF-1alpha and VEGF to the baseline values

Structure (SMILES): CC[C@]1(O)C[C@H]2CN(CCc3c([nH]c4ccccc34)[C@@](C(=O)OC)(c3cc4c(cc3OC)N(C=O)[C@H]3[C@@](O)(C(=O)OC)[C@H](OC(C)=O)[C@]5(CC)C=CCN6CC[C@]43[C@@H]65)C2)C1 [vincristine]
well-known downsides (IH): peripheral neuropathy, constipation, and hematologic toxicity

hemodynamic modifications ([1]; Example 3, 7 days after onset, 2 mg/kg/day): without any hemodynamic modifications
Structure (SMILES): CC(C)NCC(O)COc1cccc2ccccc12 (racemic) [propranolol]
cleaved caspase-3 and 8 immunostaining (proapoptotic role) (cleaved caspase-3 and 8): did not demonstrate positive immunostaining
change of the hemangioma after onset of treatment ([1]; Example 1, baby, nasal pyramid IH, 3 mg/kg/day, the day after onset): changed in color from intense red to purple, and softened
aspect of the IH ([1]; Example 1, still under propranolol): completely flat
parotidal and axillary subcutaneous hemangiomatous components ([1]; Example 2, 2 mg/kg/d): not palpable
time to softening of the lesions after onset ([1]; Example 2, 2 mg/kg/day): 12 h
time to success after reintroduction of treatment ([1]; Example 2, 2 mg/kg/day): 24 h
change in size of hemangioma ([1]; Example 2, 2 mg/kg/day, seven days after onset): dramatic reduction in size of the subcutaneous component of the hemangioma
effect of treatment interruption ([1]; Example 2, 3-day interruption, superior eyelid and parotidal areas): mild increase in size of the hemangioma
outcome after treatment stopped ([1]; Example 2, stopped): without any re-growth of the IH
IH thickness (ultrasonography) ([1]; Example 3, 7 days after onset, versus 12 mm before): 6 mm
IH diameter (ultrasonography) ([1]; Example 3, 7 days after onset, versus 32 mm before): 21 mm
time to flattening of the lesion ([1]; Example 3, periocular IH, 2 mg/kg/day): 12 h
outcome after treatment stopped ([1]; Example 3, stopped after one month): novel increase in size of the IH
outcome after treatment stopped ([1]; Example 3, stopped at 8 months): without any rebound of the hemangioma
aspect of the IH ([1]; Example 3, treatment resumed): flat and had faded in color
treatment failure ([1]; all treated children (Examples 1-3 and seven other)): No treatment failure
Beta-blocker efficiency (subglottic hemangioma; [2]): success
Laryngeal stenosis during beta-blocker treatment (%) (subglottic hemangioma; [2]): 5%

Structure (SMILES): CCCC(=O)Nc1ccc(OCC(O)CNC(C)C)c(C(C)=O)c1 (centres unmarked) [Acebutolol]
overall result of study (subglottic hemangioma; 8 mg/kg/day): able to treat hemangiomas
Beta-blocker efficiency (subglottic hemangioma; [3]): Failure
Laryngeal stenosis during beta-blocker treatment (%) (subglottic hemangioma; [3]): 90%
Beta-blocker efficiency (subglottic hemangioma; [4]): success
Laryngeal stenosis during beta-blocker treatment (%) (subglottic hemangioma; [4]): 10%
Beta-blocker efficiency (subglottic hemangioma; [5]): success
Laryngeal stenosis during beta-blocker treatment (%) (subglottic hemangioma; [5]): 5%

Structure (SMILES): CC(C)(C)NC[C@H](O)COc1nsnc1N1CCOCC1 [Timolol, timolol]
Mean VAS ± Standard deviation (infantile hemangiomas; Age at treatment inititation (mos) <6): 45 ± 27
Mean VAS ± Standard deviation (infantile hemangiomas; Age at treatment inititation (mos) >6): 47 ± 30
Mean VAS ± Standard deviation (infantile hemangiomas; Depth of hemangioma: Deep): 32 ± 28
Mean VAS ± Standard deviation (infantile hemangiomas; Depth of hemangioma: Superficial): 53 ± 29
Mean VAS ± Standard deviation (infantile hemangiomas; Location: Facial): 45 ± 29
Mean VAS ± Standard deviation (infantile hemangiomas; Location: Nonfacial): 43 ± 32
Mean VAS ± Standard deviation (infantile hemangiomas; Timolol concentration (%) 0.1): 24 ± 29
Mean VAS ± Standard deviation (infantile hemangiomas; Timolol concentration (%) 0.5): 48 ± 28
Mean VAS ± Standard deviation (infantile hemangiomas; Treatment duration (mos) <3): 38 ± 28
Mean VAS ± Standard deviation (infantile hemangiomas; Treatment duration (mos) >3): 52 ± 30
overall result of study (infantile hemangiomas; timolol maleate 0.1% or 0.5% gel-forming solution): able to treat hemangiomas

Structure (SMILES): CC(C)(C)NCC(O)COc1cccc2c1CC(O)C(O)C2 (centres unmarked) [nadolol]
overall result of study (head and neck IH): able to treat efficiently hemangiomas
